The record followed here is US9650339B2, “Inhibitors of histone demethylases” (Gilead Sciences, Inc., priority 2013, dated 2017).

Common to all, as to format: biochemical
In test [1] the target is T1, KDM6B (JMJD3) (Homo sapiens, UniProt O15054).
T1 construct: 1043-end; purchased BPS; host or cells: Bac (baculovirus system)
Put plainly: Histone lysine demethylase AlphaLISA assay, KDM6B. As to conditions: read-out: KDM6B HDME Inhibition IC50. As for the experimental part:
(§1) Assays are performed analogously to the protocol described by PerkinElmer (Roy et al. PerkinElmer Technical Note: AlphaLISA #12, April 2011)
(§2) Enzymes are dissolved in enzyme buffer and incubated for 10 min before being added to 3% DMSO solutions of compounds in enzyme buffer. Incubated for another 10 minutes, before substrate solution is added and the reaction mixture is incubated at room temperature. 10 μL acceptor beads, suspended in Epigenetic Buffer (Perkin Elmer AL008) from stock, are added and the suspension is incubated in the dark at room temperature, before a suspension of streptavidin donor beads (Perkin Elmer 6760002) in Epigenetic Buffer is added. After incubation at room temperature in the dark the plates are read. […]
BK27M3: Biotin-ATKAAR(Kme3)SAPATGGVKKPHRY-NH2? (Caslo, Denmark) […]
(§3) Substrate Solution: Substrate, 25 μM L-Asc, and 10 μM α-KG in Buffer A.
(Alpha assays give light when donor and acceptor beads are brought close together.)

The target of test [2] is T2, KDM4C (JMJD2C) (Homo sapiens, UniProt Q9H3R0).
T2 sequence (Q9H3R0 1-349): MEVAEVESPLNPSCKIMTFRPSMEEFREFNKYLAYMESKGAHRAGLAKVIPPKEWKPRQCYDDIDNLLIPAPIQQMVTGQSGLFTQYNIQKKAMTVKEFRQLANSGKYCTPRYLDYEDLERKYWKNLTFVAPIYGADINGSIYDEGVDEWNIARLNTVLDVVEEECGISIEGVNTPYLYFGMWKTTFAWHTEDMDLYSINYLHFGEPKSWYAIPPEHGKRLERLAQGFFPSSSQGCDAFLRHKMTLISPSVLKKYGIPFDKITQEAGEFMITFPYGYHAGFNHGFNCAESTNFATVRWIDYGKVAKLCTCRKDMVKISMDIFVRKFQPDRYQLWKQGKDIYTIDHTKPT
Nature of the test: Histone lysine demethylase AlphaLISA assay, KDM4C. The note with it: read-out: KDM4C HDME Inhibition IC50. The method in brief:
(§4)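 Enzyme 10 min pre-incubation; + compound (3% DMSO soln) 10 min; + biotin-H3 methyl-Lys peptide, 25 μM L-Asc, 10 μM α-KG, RT. Read: AlphaLISA acceptor beads, then streptavidin donor beads, RT, dark.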

Test [3] has as its target T3, KDM4A (JMJD2A) (Homo sapiens, UniProt O75164).
T3 construct: 1-350; purchased BPS Bioscience, US; host or cells: E. coli
T3 sequence (O75164 1-350): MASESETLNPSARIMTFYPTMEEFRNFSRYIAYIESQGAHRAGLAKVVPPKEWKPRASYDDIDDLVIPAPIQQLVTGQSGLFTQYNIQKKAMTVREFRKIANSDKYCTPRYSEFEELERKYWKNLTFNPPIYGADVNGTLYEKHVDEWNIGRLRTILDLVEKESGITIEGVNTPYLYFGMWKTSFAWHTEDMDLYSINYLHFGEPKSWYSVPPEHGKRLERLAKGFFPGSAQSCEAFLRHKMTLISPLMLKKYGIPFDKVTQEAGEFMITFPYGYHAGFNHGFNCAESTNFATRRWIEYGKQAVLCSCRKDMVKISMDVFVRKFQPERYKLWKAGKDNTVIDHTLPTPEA
Put plainly: Histone lysine demethylase AlphaLISA assay, KDM4A. The note with it: read-out: KDM4A HDME Inhibition IC50. On the procedure: as §1
Enzymes are dissolved in enzyme buffer and incubated for 10 min before being added to 3% DMSO solutions of compounds in enzyme buffer. Incubated for another 10 minutes, before substrate solution is added and the reaction mixture is incubated at room temperature. 10 μL acceptor beads, suspended in Epigenetic Buffer (Perkin Elmer AL008) from stock, are added and the suspension is incubated in the dark at room temperature, before a suspension of streptavidin donor beads (Perkin Elmer 6760002) in Epigenetic Buffer is added. After incubation at room temperature in the dark the plates are read.
BK9M3: Biotin-ARTKQTAR(KMe3)STGGKAPRKQ-NH2 (Caslo, Denmark) […]
as §3

Test [4] deals with T4, KDM7 (PHF8) (Homo sapiens, UniProt Q9UPP1).
T4 construct: KDM7 (PHF8); BRIC; 1-1322; Bac
Nature of the test: Histone lysine demethylase AlphaLISA assay, KDM7. As to conditions: read-out: PHF8 HDME Inhibition IC50. The method in brief:
as §4

Test [5] addresses T5, KDM5C (JARID1C) (Homo sapiens, UniProt P41229).
T5 construct: 2-1560; purchased BPS; host or cells: Bac (baculovirus system)
Nature of the test: Histone lysine demethylase AlphaLISA assay, KDM5C. The note with it: read-out: KDM5C HDME Inhibition IC50. As for the experimental part: as §1, §2
H3K4M3B: H-ART(Kme3)QTARKSTGGKAPRKQLA-NH-Biotin (Caslo, Denmark) […]
as §3

The target of test [6] is T6, KDM5B (PLU-1) (Homo sapiens, UniProt Q9UGL1).
T6 sequence (Q9UGL1 1-809): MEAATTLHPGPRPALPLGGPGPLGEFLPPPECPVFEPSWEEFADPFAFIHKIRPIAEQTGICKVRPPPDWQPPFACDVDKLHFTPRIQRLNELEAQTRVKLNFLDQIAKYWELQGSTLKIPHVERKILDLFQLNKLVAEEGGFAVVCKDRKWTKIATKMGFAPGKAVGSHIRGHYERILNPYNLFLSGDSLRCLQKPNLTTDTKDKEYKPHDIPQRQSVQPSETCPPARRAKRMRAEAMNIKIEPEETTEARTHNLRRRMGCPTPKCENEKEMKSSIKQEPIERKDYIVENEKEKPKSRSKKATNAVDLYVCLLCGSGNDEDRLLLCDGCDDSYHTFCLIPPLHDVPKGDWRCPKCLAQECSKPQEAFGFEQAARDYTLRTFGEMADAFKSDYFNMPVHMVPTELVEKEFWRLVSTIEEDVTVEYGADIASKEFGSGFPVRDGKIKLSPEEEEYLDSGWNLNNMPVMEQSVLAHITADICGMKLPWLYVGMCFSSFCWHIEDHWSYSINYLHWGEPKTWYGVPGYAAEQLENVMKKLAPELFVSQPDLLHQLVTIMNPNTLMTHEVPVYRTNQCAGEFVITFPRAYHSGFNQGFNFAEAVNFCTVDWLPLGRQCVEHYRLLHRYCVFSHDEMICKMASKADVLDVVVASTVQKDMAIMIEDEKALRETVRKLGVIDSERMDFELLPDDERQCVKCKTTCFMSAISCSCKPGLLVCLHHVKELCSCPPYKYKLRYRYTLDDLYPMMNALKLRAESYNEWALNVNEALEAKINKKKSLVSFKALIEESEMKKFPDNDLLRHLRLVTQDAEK
Nature of the test: Histone lysine demethylase AlphaLISA assay, KDM5B. As to conditions: read-out: KDM5B HDME Inhibition IC50. The method in brief: as §4

T4 sequence (Q9UPP1 37-440 limits assumed): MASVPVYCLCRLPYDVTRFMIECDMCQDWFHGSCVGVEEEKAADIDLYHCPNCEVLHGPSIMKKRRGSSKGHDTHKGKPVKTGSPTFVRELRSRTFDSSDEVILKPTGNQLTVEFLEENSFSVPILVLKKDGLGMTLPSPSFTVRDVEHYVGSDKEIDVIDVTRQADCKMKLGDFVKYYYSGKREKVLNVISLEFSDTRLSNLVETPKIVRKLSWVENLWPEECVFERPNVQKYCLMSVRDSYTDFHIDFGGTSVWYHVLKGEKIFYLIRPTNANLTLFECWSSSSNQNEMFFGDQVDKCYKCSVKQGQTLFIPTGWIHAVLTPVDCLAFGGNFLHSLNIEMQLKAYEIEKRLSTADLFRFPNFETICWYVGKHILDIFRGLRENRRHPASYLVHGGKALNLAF
T1 sequence (O15054 1043-1682 isoform O15054-1 limits assumed): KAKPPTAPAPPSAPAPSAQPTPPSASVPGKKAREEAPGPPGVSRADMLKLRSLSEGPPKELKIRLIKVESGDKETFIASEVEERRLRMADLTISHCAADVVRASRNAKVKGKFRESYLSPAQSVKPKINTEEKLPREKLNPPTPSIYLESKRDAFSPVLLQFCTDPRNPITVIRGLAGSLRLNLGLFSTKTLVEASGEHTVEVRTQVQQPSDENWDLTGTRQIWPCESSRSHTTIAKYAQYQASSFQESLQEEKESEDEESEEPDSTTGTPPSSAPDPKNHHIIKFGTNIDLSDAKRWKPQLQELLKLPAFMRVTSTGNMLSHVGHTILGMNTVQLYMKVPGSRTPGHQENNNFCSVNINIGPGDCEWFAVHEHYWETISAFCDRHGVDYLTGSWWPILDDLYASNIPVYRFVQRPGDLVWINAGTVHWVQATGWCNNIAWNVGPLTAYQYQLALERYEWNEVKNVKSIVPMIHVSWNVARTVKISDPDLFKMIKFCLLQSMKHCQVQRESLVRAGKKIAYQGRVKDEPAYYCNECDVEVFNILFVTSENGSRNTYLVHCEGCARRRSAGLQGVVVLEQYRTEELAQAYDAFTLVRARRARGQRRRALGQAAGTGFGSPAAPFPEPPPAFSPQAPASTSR
T5 sequence (P41229 2-1560): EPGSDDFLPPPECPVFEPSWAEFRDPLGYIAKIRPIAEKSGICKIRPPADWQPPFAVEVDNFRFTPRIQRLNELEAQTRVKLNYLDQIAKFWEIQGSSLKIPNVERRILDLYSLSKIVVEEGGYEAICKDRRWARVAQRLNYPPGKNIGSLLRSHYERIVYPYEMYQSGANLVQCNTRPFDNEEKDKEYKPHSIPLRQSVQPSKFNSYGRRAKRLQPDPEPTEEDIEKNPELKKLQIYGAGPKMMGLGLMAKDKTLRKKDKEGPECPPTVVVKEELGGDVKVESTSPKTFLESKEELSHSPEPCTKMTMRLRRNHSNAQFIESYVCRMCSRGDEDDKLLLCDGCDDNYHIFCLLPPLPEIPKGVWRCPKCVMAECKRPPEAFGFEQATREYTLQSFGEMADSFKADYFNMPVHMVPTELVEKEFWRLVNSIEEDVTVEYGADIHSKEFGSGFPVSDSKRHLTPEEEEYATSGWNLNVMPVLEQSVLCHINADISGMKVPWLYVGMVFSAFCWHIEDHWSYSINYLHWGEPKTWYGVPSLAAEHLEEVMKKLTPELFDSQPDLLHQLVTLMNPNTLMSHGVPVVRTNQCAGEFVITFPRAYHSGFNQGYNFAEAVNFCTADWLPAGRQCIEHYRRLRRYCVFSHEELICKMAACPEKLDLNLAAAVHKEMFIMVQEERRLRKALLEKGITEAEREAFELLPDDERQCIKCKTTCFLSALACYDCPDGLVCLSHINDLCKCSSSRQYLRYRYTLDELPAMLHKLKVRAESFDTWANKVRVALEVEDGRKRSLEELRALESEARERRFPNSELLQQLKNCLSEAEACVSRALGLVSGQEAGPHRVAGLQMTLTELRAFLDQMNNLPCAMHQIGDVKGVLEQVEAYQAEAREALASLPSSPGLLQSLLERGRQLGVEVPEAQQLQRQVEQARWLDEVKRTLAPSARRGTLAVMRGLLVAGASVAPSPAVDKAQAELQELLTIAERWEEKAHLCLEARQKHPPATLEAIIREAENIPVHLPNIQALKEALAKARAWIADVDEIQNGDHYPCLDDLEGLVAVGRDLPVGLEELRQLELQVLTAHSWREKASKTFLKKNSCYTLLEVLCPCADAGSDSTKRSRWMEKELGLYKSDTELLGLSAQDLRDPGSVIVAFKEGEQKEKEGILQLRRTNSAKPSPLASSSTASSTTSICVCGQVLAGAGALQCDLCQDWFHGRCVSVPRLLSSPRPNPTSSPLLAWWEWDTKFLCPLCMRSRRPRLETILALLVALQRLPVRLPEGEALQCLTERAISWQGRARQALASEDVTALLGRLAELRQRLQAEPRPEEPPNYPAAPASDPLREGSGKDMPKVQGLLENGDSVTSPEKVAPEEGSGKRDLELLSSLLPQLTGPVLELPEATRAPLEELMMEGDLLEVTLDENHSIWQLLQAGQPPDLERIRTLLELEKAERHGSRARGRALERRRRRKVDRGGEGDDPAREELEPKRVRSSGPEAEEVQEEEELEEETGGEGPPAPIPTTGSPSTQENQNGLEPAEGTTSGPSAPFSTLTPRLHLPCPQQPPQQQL

One may read the IC50 as the concentration that gives 50% inhibition. Consider `CCCCCCCC/N=C/c1ccnc(CNCC(=O)N(CC)CC)c1` [Compound 58, N,N-diethyl-2-[({4-[(octylimino)methyl]-pyridin-2-yl}methyl)amino]-acetamide], for which the IC50 in test [1] was > 2500 nM; in test [2], 250 to 2500 nM; in test [3], > 2500 nM; in test [4], > 2500 nM; in test [5], < 250 nM; in test [6] it was < 250 nM.

`CN(C)CCCCCNCc1cc(/C=N/C2CC2)ccn1` [Compound 47, N-{[2-({[5-(dimethylamino)-pentyl]amino}-methyl)pyridin-4-yl]methylidene}-cyclopropanamine]: the IC50 in test [1] is > 2500 nM; in test [2] it was > 2500 nM; in test [3], > 2500 nM; in test [4], > 2500 nM; in test [5], < 250 nM; in test [6], < 250 nM.

As to `O=Cc1ccnc(CNCC(=O)N2CCC[C@@H]2CN2CCCC2)c1` [Compound 102, 2-[({2-oxo-2-[(2R)-2-(pyrrolidin-1-ylmethyl)pyrrolidin-1-yl]ethyl}amino)-methyl]pyridine-4-carbaldehyde], the IC50 in test [1] is > 2500 nM; in test [2], < 250 nM; in test [3] it was > 2500 nM; in test [4], > 2500 nM; in test [5], < 250 nM; in test [6] it was < 250 nM.

For the compound `CN(C)CCC/N=C/c1ccnc(CNCCCN(C)C)c1` [Compound 37, [3-(dimethylamino)propyl]-({4-[{[3-(dimethylamino)propyl]-imino}methyl]pyridin-2-yl}methyl)amine], the IC50 in test [1] is > 2500 nM; in test [2] it was > 2500 nM; in test [3], > 2500 nM; in test [4] it was > 2500 nM; in test [5], < 250 nM; in test [6], < 250 nM.

For `CNCc1ccnc(CNCCCN(C)Cc2ccccc2)c1` [Compound 17, benzyl(methyl){3-[({4-[(methylamino)methyl]-pyridin-2-yl)methyl)-amino]propyl}-amine], the IC50 is > 2500 nM in test [1]; 250 to 2500 nM in test [2]; > 2500 nM in test [3]; > 2500 nM in test [4]; < 250 nM in test [5]; < 250 nM in test [6].

As for `CCCNCc1cc(CNC2CC2)ccn1` [Compound 12, N-({2-[(propylamino)methyl]-pyridin-4-yl}methyl)-cyclopropanamine], the IC50 in test [1] was > 2500 nM; in test [2] it was > 2500 nM; in test [3] it was > 2500 nM; in test [4] it was > 2500 nM; in test [5], > 2500 nM; in test [6], 250 to 2500 nM.

Consider `CN(C)C/C=C\CNCc1cc(C=O)ccn1` [Compound 99, 2-({[(2Z)-4-(dimethylamino)-but-2-en-1-yl]amino}methyl)-pyridine-4-carbaldehyde], for which the IC50 in test [1] is > 2500 nM; in test [2], > 2500 nM; in test [3], > 2500 nM; in test [4], > 2500 nM; in test [5] it was < 250 nM; in test [6], < 250 nM.

In the case of `CCN(CC)CCCCNCc1cc(CNC(=O)C(F)(F)F)ccn1` [Compound 1, N-{[2-({[4-(diethylamino)butyl]-amino}methyl)pyridin-4-yl]methyl}-2,2,2-trifluoroacetamide], the IC50 in test [1] was > 2500 nM; in test [2], > 2500 nM; in test [3], 250 to 2500 nM; in test [4], 250 to 2500 nM; in test [5], 250 to 2500 nM; in test [6] it was 250 to 2500 nM.

For the compound `CCN(CCC#N)C(=O)CNCc1cc(/C=N/C2CC2)ccn1` [Compound 50, N-(2-cyanoethyl)-2-[({4-[N-cyclopropyl-carboximidoyl]-pyridin-2-yl}methyl)amino]-N-ethylacetamide], the IC50 in test [1] was > 2500 nM; in test [2], 250 to 2500 nM; in test [3] it was < 250 nM; in test [4], < 250 nM; in test [5], < 250 nM; in test [6] it was < 250 nM.
